Test results as given in patent US12077503B2, “Substituted cyclic amides and their use as herbicides” (FMC CORPORATION, priority 2015, dated 2024).

Tests used:
Type in all cases: in vivo
[1] = tested on: Kochia (Kochia scoparia); assay: Test A preemergence
Outline: (§1)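 Compounds were formulated in a non-phytotoxic solvent mixture with surfactant and applied as a preemergence directed soil spray after seeding, or sprayed postemergence over plants 2 to 10 cm tall at the one- to two-leaf stage. Evaluation after about 10 d compared treated with untreated controls, using a scale from 0 (no effect) to 100 (complete control).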

[2] = tested on: barnyardgrass (Echinochloa crus-galli); assay: Test A preemergence
Outline: as §1

[3] = tested on: giant foxtail (Setaria faberii); assay: Test A preemergence
Outline: as §1

[4] = tested on: pigweed (Amaranthus retroflexus); assay: Test A preemergence
[5] = tested on: ragweed (common ragweed, Ambrosia elatior); assay: Test A preemergence
Outline: as §1

[6] = tested on: ryegrass, Italian (Italian ryegrass, Lolium multiflorum); assay: Test A preemergence
Outline: as §1

[7] = tested on: Galium (catchweed bedstraw, Galium aparine); assay: Test A postemergence
Outline: as §1

[8] = tested on: Kochia (Kochia scoparia); assay: Test A postemergence
Outline: as §1

[9] = tested on: barnyardgrass (Echinochloa crus-galli); assay: Test A postemergence
Outline: as §1

[10] = tested on: blackgrass (Alopecurus myosuroides); assay: Test A postemergence
Outline: as §1

[11] = tested on: corn (Zea mays); assay: Test A postemergence
Outline: as §1

[12] = tested on: giant foxtail (Setaria faberii); assay: Test A postemergence
Outline: as §1

[13] = tested on: pigweed (Amaranthus retroflexus); assay: Test A postemergence
Outline: as §1

[14] = tested on: ragweed (common ragweed, Ambrosia elatior); assay: Test A postemergence
Outline: as §1

[15] = tested on: ryegrass, Italian (Italian ryegrass, Lolium multiflorum); assay: Test A postemergence
Outline: as §1

[16] = tested on: wheat (Triticum aestivum); assay: Test A postemergence
Outline: as §1

[17] = tested on: barnyardgrass (Echinochloa crus-galli); assay: Test B flooded paddy test; conditions: Flood, 250 g ai/ha; for Plant response rating, Barnyardgrass: 0 to 100 scale where 0 is no effect and 100 is complete control, 13 to 15 d
Outline: (§2)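 Flooding to 3 cm over soil accompanied treatment, which consisted of adding compound to the standing water around 2-leaf plants; depth was then maintained. Visual assessment versus controls followed at 13 to 15 d (scale 0–100, 0 meaning no effect).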

[18] = tested on: ducksalad (Heteranthera limosa); assay: Test B flooded paddy test; conditions: Flood, 250 g ai/ha; for Plant response rating, Ducksalad: 0 to 100 scale where 0 is no effect and 100 is complete control, 13 to 15 d
Outline: as §2

[19] = tested on: rice (Oryra sativa); assay: Test B flooded paddy test; conditions: Flood, 250 g ai/ha; for Plant response rating, Rice: 0 to 100 scale where 0 is no effect and 100 is complete control, 13 to 15 d
Outline: as §2

[20] = tested on: sedge, umbrella (small-flower umbrella sedge, Cyperus difformis); assay: Test B flooded paddy test; conditions: Flood, 250 g ai/ha, 0 to 100 scale where 0 is no effect and 100 is complete control; for Plant response rating, Sedge, Umbrella: 13 to 15 d
Outline: as §2

[21] = 125 g ai/ha, preemergence, 0 to 100 scale (0 no effect, 100 complete control)
[22] = Preemergence, 500 g ai/ha, 0 is no effect, 100 is complete control
[23] = 500 g ai/ha, postemergence, 0 to 100 scale, 0 no effect, 100 complete control
[24] = Postemergence, 125 g ai/ha, visual injury, 0 to 100 scale (0 no effect, 100 complete control), approx. 10 d
[25] = Preemergence, 500 g ai/ha, visual injury approx. 10 d
[26] = 125 g ai/ha, postemergence, visual injury rating on 0 to 100 scale (0 no effect, 100 complete control), approx. 10 d
[27] = 125 g ai/ha, Preemergence, visual injury rating after approximately 10 d
[28] = 125 g ai/ha, Postemergence, visual injury after approximately 10 d, 0 to 100 scale where 0 is no effect and 100 is complete control

O=C1NCC(c2cccc(F)c2)C1C(=O)Nc1cccc(F)c1F (racemic) [Compound 375]
Plant response rating, Kochia [1, 21]: 20 | Kochia plant response rating (0 to 100 scale) [1, 22]: 70 | Plant response rating, Barnyardgrass [2, 21]: 90 | Barnyardgrass plant response rating (0 to 100 scale) [2, 22]: 90 | Plant response rating, Foxtail, Giant [3, 21]: 90 | Foxtail, Giant plant response rating (0 to 100 scale) [3, 22]: 90 | Plant response rating, Pigweed [4, 21]: 20 | Pigweed plant response rating (0 to 100 scale) [4, 22]: 70 | Plant response rating, Ragweed [5, 21]: 0 | Ragweed plant response rating (0 to 100 scale) [5, 22]: 70 | Plant response rating, Ryegrass, Italian [6, 21]: 20 | Ryegrass, Italian plant response rating (0 to 100 scale) [6, 22]: 50 | Plant response rating, Galium [7, 23]: 50 | Plant response rating, Galium [7, 24]: 40 | Plant response rating, Kochia [8, 23]: 60 | Plant response rating, Kochia [8, 24]: 30 | Plant response rating, Barnyardgrass [9, 23]: 90 | Plant response rating, Barnyardgrass [9, 24]: 90 | Plant response rating, Blackgrass [10, 23]: 70 | Plant response rating, Blackgrass [10, 24]: 50 | Plant response rating, Corn [11, 23]: 80 | Plant response rating, Corn [11, 24]: 30 | Plant response rating, Foxtail, Giant [12, 23]: 90 | Plant response rating, Foxtail, Giant [12, 24]: 90 | Plant response rating, Pigweed [13, 23]: 50 | Plant response rating, Pigweed [13, 24]: 20 | Plant response rating, Ragweed [14, 23]: 20 | Plant response rating, Ragweed [14, 24]: 0 | Plant response rating, Ryegrass, Italian [15, 23]: 20 | Plant response rating, Ryegrass, Italian [15, 24]: 0 | Plant response rating, Wheat [16, 23]: 80 | Plant response rating, Wheat [16, 24]: 30 | Plant response rating, Barnyardgrass [17]: 70 | Plant response rating, Ducksalad [18]: 100 | Plant response rating, Rice [19]: 30 | Plant response rating, Sedge, Umbrella [20]: 0

CN1CC(c2ccc3c(c2)OC(F)(F)O3)C(C(=O)Nc2cccc(F)c2F)C1=O (centres unmarked) [Compound 442]
Plant response rating, Kochia [1, 21]: 80 | Kochia plant response rating (0 to 100 scale, 0 is no effect, 100 is complete control) [1, 25]: 90 | Plant response rating, Barnyardgrass [2, 21]: 90 | Barnyardgrass plant response rating (0 to 100 scale, 0 is no effect, 100 is complete control) [2, 25]: 90 | Plant response rating, Foxtail, Giant [3, 21]: 90 | Foxtail, Giant plant response rating (0 to 100 scale, 0 is no effect, 100 is complete control) [3, 25]: 90 | Plant response rating, Pigweed [4, 21]: 70 | Pigweed plant response rating (0 to 100 scale, 0 is no effect, 100 is complete control) [4, 25]: 80 | Plant response rating, Ragweed [5, 21]: 20 | Ragweed plant response rating (0 to 100 scale, 0 is no effect, 100 is complete control) [5, 25]: 60 | Plant response rating, Ryegrass, Italian [6, 21]: 60 | Ryegrass, Italian plant response rating (0 to 100 scale, 0 is no effect, 100 is complete control) [6, 25]: 80 | Galium plant response rating [7, 26]: 60 | Plant response rating, Galium [7, 23]: 60 | Kochia plant response rating [8, 26]: 20 | Plant response rating, Kochia [8, 23]: 60 | Barnyardgrass plant response rating [9, 26]: 80 | Plant response rating, Barnyardgrass [9, 23]: 90 | Blackgrass plant response rating [10, 26]: 60 | Plant response rating, Blackgrass [10, 23]: 70 | Corn plant response rating [11, 26]: 50 | Plant response rating, Corn [11, 23]: 70 | Foxtail, Giant plant response rating [12, 26]: 80 | Plant response rating, Foxtail, Giant [12, 23]: 80 | Pigweed plant response rating [13, 26]: 60 | Plant response rating, Pigweed [13, 23]: 70 | Ragweed plant response rating [14, 26]: 0 | Plant response rating, Ragweed [14, 23]: 40 | Ryegrass, Italian plant response rating [15, 26]: 60 | Plant response rating, Ryegrass, Italian [15, 23]: 80 | Wheat plant response rating [16, 26]: 40 | Plant response rating, Wheat [16, 23]: 70 | Plant response rating, Barnyardgrass [17]: 75 | Plant response rating, Ducksalad [18]: 100 | Plant response rating, Rice [19]: 0 | Plant response rating, Sedge, Umbrella [20]: 0

Cc1ccc([C@H]2CN(C)C(=O)[C@@H]2C(=O)Nc2ccccc2[S+](C)[O-])cc1F (single isomer, unassigned) [Compound 987]
Kochia plant response rating (0 to 100 scale, 0 is no effect, 100 is complete control) [1, 27]: 0 | pest or weed control at 500 g/ha ([1]; Bassia scoparia, pre-emergence, 240 h, 500 g ai/ha, preemergence, visual injury rating about 10 d after treatment, 0 to 100 scale (0 no effect, 100 complete control), read-out: Kochia plant response rating): 60% | Barnyardgrass plant response rating (0 to 100 scale, 0 is no effect, 100 is complete control) [2, 27]: 60 | pest or weed control at 500 g/ha ([2]; Echinochloa crus-galli, pre-emergence, 240 h, 500 g ai/ha, preemergence, visual injury rating about 10 d after treatment, 0 to 100 scale (0 no effect, 100 complete control), read-out: Barnyardgrass plant response rating): 90% | pest or weed control at 125 g/ha ([3]; Setaria faberi, pre-emergence, 240 h, 125 g ai/ha, Preemergence, visual injury rating after approximately 10 d, read-out: Foxtail, Giant plant response rating (0 to 100 scale, 0 is no effect, 100 is complete control)): 90% | pest or weed control at 500 g/ha ([3]; Setaria faberi, pre-emergence, 240 h, 500 g ai/ha, preemergence, visual injury rating about 10 d after treatment, 0 to 100 scale (0 no effect, 100 complete control), read-out: Foxtail, Giant plant response rating): 90% | Pigweed plant response rating (0 to 100 scale, 0 is no effect, 100 is complete control) [4, 27]: 0 | pest or weed control at 500 g/ha ([4]; Amaranthus retroflexus, pre-emergence, 240 h, 500 g ai/ha, preemergence, visual injury rating about 10 d after treatment, 0 to 100 scale (0 no effect, 100 complete control), read-out: Pigweed plant response rating): 20% | Ragweed plant response rating (0 to 100 scale, 0 is no effect, 100 is complete control) [5, 27]: 0 | Ragweed plant response rating ([5]; 500 g ai/ha, preemergence, visual injury rating about 10 d after treatment, 0 to 100 scale (0 no effect, 100 complete control)): 0 | pest or weed control at 125 g/ha ([6]; Lolium multiflorum, pre-emergence, 240 h, 125 g ai/ha, Preemergence, visual injury rating after approximately 10 d, read-out: Ryegrass, Italian plant response rating (0 to 100 scale, 0 is no effect, 100 is complete control)): 0% | pest or weed control at 500 g/ha ([6]; Lolium multiflorum, pre-emergence, 240 h, 500 g ai/ha, preemergence, visual injury rating about 10 d after treatment, 0 to 100 scale (0 no effect, 100 complete control), read-out: Ryegrass, Italian plant response rating): 40% | pest or weed control at 125 g/ha ([7]; Galium, post-emergence, 240 h, 125 g ai/ha, Postemergence, visual injury after approximately 10 d, 0 to 100 scale where 0 is no effect and 100 is complete control, read-out: Plant response rating, Galium): 40% | Plant response rating, Kochia [8, 28]: 0 | pest or weed control at 125 g/ha ([9]; Echinochloa crus-galli, post-emergence, 240 h, 125 g ai/ha, Postemergence, visual injury after approximately 10 d, 0 to 100 scale where 0 is no effect and 100 is complete control, read-out: Plant response rating, Barnyardgrass): 80% | Plant response rating, Blackgrass [10, 28]: 0 | Plant response rating, Corn [11, 28]: 0 | pest or weed control at 125 g/ha ([12]; Setaria faberi, post-emergence, 240 h, 125 g ai/ha, Postemergence, visual injury after approximately 10 d, 0 to 100 scale where 0 is no effect and 100 is complete control, read-out: Plant response rating, Foxtail, Giant): 60% | pest or weed control at 125 g/ha ([13]; Amaranthus retroflexus, post-emergence, 240 h, 125 g ai/ha, Postemergence, visual injury after approximately 10 d, 0 to 100 scale where 0 is no effect and 100 is complete control, read-out: Plant response rating, Pigweed): 0% | pest or weed control at 125 g/ha ([14]; Ambrosia artemisiifolia, post-emergence, 240 h, 125 g ai/ha, Postemergence, visual injury after approximately 10 d, 0 to 100 scale where 0 is no effect and 100 is complete control, read-out: Plant response rating, Ragweed): 0% | Plant response rating, Ryegrass, Italian [15, 28]: 0 | Plant response rating, Wheat [16, 28]: 0 | pest or weed control at 250 g/ha ([17]; Echinochloa crus-galli, scale of 0 to 100 where 0 is no effect and 100 is complete control, read-out: Barnyardgrass plant response rating): 90% | Ducksalad plant response rating ([18]; scale of 0 to 100 where 0 is no effect and 100 is complete control): 75 | pest or weed control at 250 g/ha ([19]; Oryza sativa, scale of 0 to 100 where 0 is no effect and 100 is complete control, read-out: Rice plant response rating): 35% | pest or weed control at 250 g/ha ([20]; Cyperus difformis, read-out: Sedge, Umbrella plant response rating): 0%
